Earlier results on one sequence are cited in article PMC11860437, “Gold Nanoparticles as a Platform for Delivery of Immunogenic Peptides to THP-1 Derived Macrophages: Insights into Nanotoxicity” (Vaccines, 2025).

Data set [1] has as its system HeLa, A549, and CHO. To be noted: three cell lines (HeLa, A549, and CHO). The source says: (§1) The cytotoxicity of p-Au68 was particularly high when conjugated with peptides p2 (~30–50% cell death) and p4 (~40–60% cell death). […] These peptides differ from each other by the presence of the arginine-rich TAT peptide (YGRKKRRQRRR). It is noteworthy that pTAT-functionalized NPs are considered a promising approach to overcome ...

Data set [2] concerns K562 human erythroleukemia cells.
Excerpt: as §1

Turning to YGRKKRRQRRR [pTAT], the toxicity result in data set [1] is “low toxicity”. Also, the membrane toxicity result in data set [2] is reported as “completely innocuous”.
